The nature of this series: recombinant UMI read abundance after kanamycin selection (control-corrected) (log10(CPM+1)); higher = more efficient recombination; extreme values may be limits of the assay; sequences stand for … in AGTGCAGAGAAAATCGGCCAGTTTTCTCTGCCTGCAGTCCGCATGCCGTGGGACCCCTTGGGTTCTAACCTGTTGCCTAGATTTATGCAGCGGACTGCCTTTCTCCCAAAGTGATAAACCGG…AGGTTGGTTTCACT; site = the 11-nt donor. Summed up: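 After plating on IPTG (0.07 mM) plus kanamycin, or unselected, in two replicates, recombinant UMIs were PCR-amplified across the donor–target junction and sequenced. The cells were Escherichia coli co-electroporated with a UMI-tagged donor and donor-binding-loop pair library and a target plasmid with a fixed target and T7-inducible IS621 bridge recombinase. Values are log10(CPM+1), with CPM averaged over replicates and scaled by control-derived factors.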
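Further: IS621 bridge recombinase in Escherichia coli cells against a fixed T5 target plasmid.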

With “GGTTCATCATGGACCGGTTTTCCCGGTAATCCGTATTTGCT (site CGATCATCTAG)”, the “recombinant UMI read abundance (log10)” value came out at 0.
With “GGTTCATCATGGACCGGTTTTCCCGGTAATCCGTATTTGCT (site GGTTCATCTAG)” the figure was 1.84.
The same measure for “GGTTGTCCATGGACCGGTTTTCCCGGTAATCCGTATTTGGC (site GGTTGTCCTGC)”: 0.
On to “GGTTTGGCATGGACCGGTTTTCCCGGTAATCCGTATTTGCT (site AGTTTGGCTAG)”, for which the “recombinant UMI read abundance (log10)” value stood at 0.702.
Regarding “GGTTTGGCATGGACCGGTTTTCCCGGTAATCCGTATTTGCT (site CGTTTGGCTAG)”, the “recombinant UMI read abundance (log10)” value is 0.
With “GGTTTGGCATGGACCGGTTTTCCCGGTAATCCGTATTTGCT (site GGTTTGGCTAG)” the figure was 0; with “GGTTTGGCATGGACCGGTTTTCCCGGTAATCCGTATTTGCT (site TGTTTGGCTAG)”, 0.00406.
As for “GTAAACGCATGGACCGGTTTTCCCGGTAATCCGTATTTGTT (site GTAAACGCTAA)”, the “recombinant UMI read abundance (log10)” value came to 2.59.
As to “GTAACGCCATGGACCGGTTTTCCCGGTAATCCGTATTTGGT (site GTAACGCCTAC)”, the “recombinant UMI read abundance (log10)” value is 0.517.
The same measure for “GTAAGTACATGGACCGGTTTTCCCGGTAATCCGTATTTGAC (site GTAAGTACTGT)”: 2.96; for “GTAAGTACATGGACCGGTTTTCCCGGTAATCCGTATTTGAC (site GTACGTACTGT)”: 0.
Consider “GTAAGTACATGGACCGGTTTTCCCGGTAATCCGTATTTGAC (site GTAGGTACTGT)”, for which the “recombinant UMI read abundance (log10)” value is 0.255.
The same measure for “GTAAGTACATGGACCGGTTTTCCCGGTAATCCGTATTTGAC (site GTATGTACTGT)”: 0.67.
As for “GTAATATCATGGACCGGTTTTCCCGGTAATCCGTATTTGCA (site GTAATATCTTG)”, the “recombinant UMI read abundance (log10)” value stood at 2.6.
Turning to “GTAATCACATGGACCGGTTTTCCCGGTAATCCGTATTTGCG (site GTAATCACTCG)”, the “recombinant UMI read abundance (log10)” value is 2.48.
With “GTACGAGCATGGACCGGTTTTCCCGGTAATCCGTATTTGCA (site GTACGAGCTTG)”, the “recombinant UMI read abundance (log10)” value came out at 2.55.
The same measure for “GTACGAGCATGGACCGGTTTTCCCGGTAATCCGTATTTGCA (site GTCCGAGCTTG)”: 0.87; for “GTACGAGCATGGACCGGTTTTCCCGGTAATCCGTATTTGCA (site GTGCGAGCTTG)”: 2.02.
With “GTACGAGCATGGACCGGTTTTCCCGGTAATCCGTATTTGCA (site GTTCGAGCTTG)” the figure was 0.659; with “GTACTAACATGGACCGGTTTTCCCGGTAATCCGTATTTGGA (site ATACTAACTTC)”, 0.569.
The same measure for “GTACTAACATGGACCGGTTTTCCCGGTAATCCGTATTTGGA (site CTACTAACTTC)”: 0.455; for “GTACTAACATGGACCGGTTTTCCCGGTAATCCGTATTTGGA (site GTACTAACTTC)”: 1.29; for “GTACTAACATGGACCGGTTTTCCCGGTAATCCGTATTTGGA (site TTACTAACTTC)”: 0.593.
On to “GTAGATACATGGACCGGTTTTCCCGGTAATCCGTATTTGAC (site GTAGATACTGT)”, for which the “recombinant UMI read abundance (log10)” value was determined as 2.29.
With “GTAGATACATGGACCGGTTTTCCCGGTAATCCGTATTTGAC (site GTAGCTACTGT)” the figure was 0.
The same measure for “GTAGATACATGGACCGGTTTTCCCGGTAATCCGTATTTGAC (site GTAGGTACTGT)”: 1.38; for “GTAGATACATGGACCGGTTTTCCCGGTAATCCGTATTTGAC (site GTAGTTACTGT)”: 0.903.
With “GTAGATTCATGGACCGGTTTTCCCGGTAATCCGTATTTGCA (site GTAGATTCTTG)” the figure was 2.86; with “GTAGCAGCATGGACCGGTTTTCCCGGTAATCCGTATTTGGA (site GTAGCAGCTTC)”, 0.62.
As to “GTAGCTCCATGGACCGGTTTTCCCGGTAATCCGTATTTGAA (site GTAGCTCCTTT)”, the “recombinant UMI read abundance (log10)” value was found to be 1.
The same measure for “GTAGGGACATGGACCGGTTTTCCCGGTAATCCGTATTTGAC (site GTAGGAACTGT)”: 2.21.
Turning to “GTAGGGACATGGACCGGTTTTCCCGGTAATCCGTATTTGAC (site GTAGGCACTGT)”, the “recombinant UMI read abundance (log10)” value was 2.04.
With “GTAGGGACATGGACCGGTTTTCCCGGTAATCCGTATTTGAC (site GTAGGGACTGT)” the figure was 2.63.
As to “GTAGGGACATGGACCGGTTTTCCCGGTAATCCGTATTTGAC (site GTAGGTACTGT)”, the “recombinant UMI read abundance (log10)” value stood at 1.87.
